Data: patent US4816467A, “Heteroaryl 3-oxo-propanenitrile derivatives, pharmaceutical compositions and use” (Farmitalia Carlo Erba s.r.l, priority 1987, dated 1989)

Assays:
S. flexneri = assay: Activity on S. flexneri infection in mice; format: in vivo; conditions: infection 3 × LD50 i.p., controls 100
Experimental: (§1) The compound of the present invention 2-cyano-3-(1,4-dihydro-1-phenyl-[1]-benzothiopyrano[4,3-c]pyrazol-3-yl)-3- oxo-N-phenyl-propanamide (internal code FCE 24578), for instance, was tested, according to the procedure described by Cleeland R., Grunberg E. 1986, 825-876, "Antibiotics in Laboratory Medicine" Lorian V. Editor (Williams and Wilkins), in the following models of infection: L. monocytogenes; D. pneumoniae; S. flexneri and P. aeruginosa; the last one being performed in cyclophosphamide immunosuppressed mice, according to Cryz S. J., Furer E., Germanier R., 1983, Infect. Imm., 39, 1067-1071.
(§2) Activity of FCE 24578 on S. flexneri and D. pneumoniae
(§3) Infection (3 × LD50) was given i.p.
(§4) Treatments with FCE 24578 or vehicle were performed on -3, -2, -1 and 0

D. pneumoniae = assay: Activity on D. pneumoniae infection in mice; format: in vivo; conditions: infection 3 × LD50 i.p.
Experimental: as §1, §2, §3, §4
MST = Mean Survival Time.
*= significant for p < 0.01.

L. monocytogenes = assay: Activity on L. monocytogenes infection in mice; format: in vivo; conditions: L. monocytogenes 1 × LD50 i.v., controls 75
Experimental: as §1
Activity of FCE 24578 on L. monocytogenes infection
Treatments with FCE 2457B or vehicle were performed on -3, -2, -1 and 0
day before the infection (1 × LD50) given i.v.

P. aeruginosa = assay: Activity on P. aeruginosa infection in immunosuppressed mice; format: in vivo; conditions: cyclophosphamide immunosuppressed; for % mortality 1 × LD50: P. aeruginosa 1 × LD50 i.v., controls 80; for % mortality 2 × LD50: P. aeruginosa 2 × LD50 i.v., controls 90
Experimental: as §1
Activity of FCE 24578 on P. aeruginosa infection
in immunosuppressed mice
Cyclophosphamide (200 mg/kg) was administered i.p. on the fourth day
The treatments with FCE 24578 or vehicle were performed on -3, -2, -1 and
0 day before the infection (2 × LD50 and 1 × LD50)

[1] = approximate acute toxicity (LD50) in the mouse, per os; conditions: in vivo, po, single administration of increasing doses, measured on the seventh day
Experimental: For example, the approximate acute toxicity (LD50) in the mouse of the compounds 2-cyano-3-(1,4-dihydro-1-phenyl-[1]-benzopyrano[4,3-c]pyrazol-3-yl)-3-oxo- N-phenyl-propanamide, and 2-cyano-3-(1,4-dihydro-1-phenyl-[1]-benzothiopyrano[4,3-c]pyrazol-3-yl)-3- oxo-N-phenyl-propanamide, determined per os with single administration of increasing doses and measured on the seventh day after the day of treatment, is higher than 800 mg/kg. Analogous toxicity data have been found for the other compounds of the invention.

N#CC(C(=O)Nc1ccccc1)C(=O)c1nn(-c2ccccc2)c2c1CSc1ccccc1-2 (centres unmarked) [FCE 24578, 2-cyano-3-(1,4-dihydro-1-phenyl-[1]-benzothiopyrano[4,3-c]pyrazol-3-yl)-3-oxo-N-phenyl-propanamide]
% mortality (S. flexneri; 10 mg/kg i.p. on -3, -2, -1 and 0 day before infection): 40% | % mortality (S. flexneri; 50 mg/kg i.p. on -3, -2, -1 and 0 day before infection): 10% | MST (Mean Survival Time) (D. pneumoniae; 10 mg/kg i.p. on -3, -2, -1 and 0 day before infection, controls 3.1): 4 days | MST (Mean Survival Time) (D. pneumoniae; 50 mg/kg i.p. on -3, -2, -1 and 0 day before infection, controls 3.1, * = significant for p < 0.01): 5.7 days | % mortality 1 × LD50 (L. monocytogenes; 10 mg/kg i.p.): 12.5% | % mortality 1 × LD50 (L. monocytogenes; 50 mg/kg i.p.): 0% | % mortality 1 × LD50 (L. monocytogenes; 50 mg/kg p.o.): 37.5% | % mortality 1 × LD50 (L. monocytogenes; 250 mg/kg p.o.): 25% | % mortality 1 × LD50 (P. aeruginosa; 10 mg/kg i.p.): 0% | % mortality 1 × LD50 (P. aeruginosa; 50 mg/kg i.p.): 0% | % mortality 2 × LD50 (P. aeruginosa; 10 mg/kg i.p.): 0% | % mortality 2 × LD50 (P. aeruginosa; 50 mg/kg i.p.): 0% | LD50 at 168 h [1]: > 800 mg/kg

N#CC(C(=O)Nc1ccccc1)C(=O)c1nn(-c2ccccc2)c2c1COc1ccccc1-2 (centres unmarked) [FCE 25158, 2-cyano-3-(1,4-dihydro-1-phenyl-[1]-benzopyrano[4,3-c]pyrazol-3-yl)-3-oxo-N-phenyl-propanamide]
LD50 at 168 h [1]: > 800 mg/kg
